Data on 21 molecules can be found in US9090535B2, “Hydroxylated tricyclic compounds” (Nektar Therapeutics, priority 2010, dated 2015).

A word on the Ki: it is a measure of affinity in units of concentration, obtained from inhibition or displacement. For orientation: IC50 means the concentration that inhibits the measured activity by half.

Data set [1] concerns the target T1, human norepinephrine transporter (hNET) (Homo sapiens, UniProt P23975).
T1 construct: expressed in transfected cells; host or cells: MDCK cells
Kind of data set: Binding affinity to human norepinephrine transporter (hNET), [3H]Nisoxetine displacement. The following applies: membranes from MDCK cells expressing hNET, [3H]Nisoxetine 2 nM, read-out: NET binding, Ki. The protocol: The binding affinities of certain compounds disclosed herein to the hNET were measured using competitive radioligand displacement assays in membranes prepared from MDCK cells that express the human norepinephrine transporter. Competition binding experiments were conducted by incubating hNET membranes with [^3H] Nisoxetine (2 nM), in the presence of increasing concentrations of test compounds. Incubations were carried out at 4° C. for 60 minutes in buffer containing 50 mM Tris HCl, 120 mM NaCl and 5 mM KCl (pH 7.4). The binding reaction was terminated by rapid filtration, membranes were washed and membrane-bound radioactivity was measured using a scintillation counter. Non-specific binding was measured in the presence of excess (10 μM) clomipramine as the unlabelled ligand and this value was subtracted from the total binding to yield the specific binding at each test compound concentration.
IC50 values were obtained from non-linear regression analysis of concentration-versus specific binding plots. Ki values were calculated from the IC50 values using the Cheng Prusoff correction and experimentally determined […] values for the radioligand under these assay conditions.

For data set [2], the system named is sodium channels (sodium current INa) in rat dorsal root ganglion (DRG) cells. Kind of data set: Sodium channel assay, whole-cell patch clamp of sodium current in isolated DRG cells. Type of data set: cell-based. The text has this: The effect of compounds disclosed herein on sodium channels may be evaluated in vitro to determine their blocking properties using the whole-cell patch clamp method in isolated cardiac (human atrial myocytes) and neuronal (rat dorsal root ganglion) cells. The example below refers to a sodium channel assay using neuronal cells.
Electrophysiologic patch clamp recordings of the sodium current in isolated rat dorsal root ganglion (DRG) cells were used to measure the sodium channel blocking properties of certain compounds disclosed herein. DRG cells were isolated according to the method of Blair and Bean (J Neurosci, 22: pp. 10277-10290, 2002) and plated on treated glass coverslips. For measuring the sodium current, cells were perfused with an external solution that consists of (in mmol/L): 115 TMA chloride, 10 NaCl, 5 CsCl, 1.8 CaCl2, 1.2 MgCl2, 10 HEPES, 11 dextrose, pH adjusted to 7.4 with TMA-OH. The chemical composition of the internal solution was (in mmol/L): 115 CsF, 20 CsCl, 10 NaF, 10 HEPES, 5 EGTA; pH adjusted to 7.2 with CsOH. Currents were measured using the whole-cell variant of the patch clamp method (Crumb & Clarkson, Biophysical Journal, 57(3): 589, 1990). An Axopatch 1-B amplifier (Axon Instruments, Foster City, Calif.) was used for whole-cell voltage clamping. Creation of voltage clamp pulses and data acquisition were controlled by a PC running pClamp software (version 9.2, Axon Instruments). INa was elicited by a 40 ms pulse to −20 mV from a holding potential of −65 mV. Pacing rates of 0.1 and 3 Hz were examined. […]. Four concentrations of each test compound were added to the cell in a cumulative manner starting with the lowest test concentration. Each cell served as its own control and data are presented as % reduction of current amplitude achieved in the presence of drug. A nonlinear curve fitting routine was utilized to fit a three-parameter Hill equation to the results using MicroCal Origin, version 6.0 software. The equation was: […]
For orientation: Patch clamp records ionic current or voltage across a cell membrane.

The target in data set [3] is T2, cloned human hERG channel (Homo sapiens, UniProt Q12809).
T2 construct: expressed in transfected cells; host or cells: HEK cells
T2 sequence (Q12809 whole entry): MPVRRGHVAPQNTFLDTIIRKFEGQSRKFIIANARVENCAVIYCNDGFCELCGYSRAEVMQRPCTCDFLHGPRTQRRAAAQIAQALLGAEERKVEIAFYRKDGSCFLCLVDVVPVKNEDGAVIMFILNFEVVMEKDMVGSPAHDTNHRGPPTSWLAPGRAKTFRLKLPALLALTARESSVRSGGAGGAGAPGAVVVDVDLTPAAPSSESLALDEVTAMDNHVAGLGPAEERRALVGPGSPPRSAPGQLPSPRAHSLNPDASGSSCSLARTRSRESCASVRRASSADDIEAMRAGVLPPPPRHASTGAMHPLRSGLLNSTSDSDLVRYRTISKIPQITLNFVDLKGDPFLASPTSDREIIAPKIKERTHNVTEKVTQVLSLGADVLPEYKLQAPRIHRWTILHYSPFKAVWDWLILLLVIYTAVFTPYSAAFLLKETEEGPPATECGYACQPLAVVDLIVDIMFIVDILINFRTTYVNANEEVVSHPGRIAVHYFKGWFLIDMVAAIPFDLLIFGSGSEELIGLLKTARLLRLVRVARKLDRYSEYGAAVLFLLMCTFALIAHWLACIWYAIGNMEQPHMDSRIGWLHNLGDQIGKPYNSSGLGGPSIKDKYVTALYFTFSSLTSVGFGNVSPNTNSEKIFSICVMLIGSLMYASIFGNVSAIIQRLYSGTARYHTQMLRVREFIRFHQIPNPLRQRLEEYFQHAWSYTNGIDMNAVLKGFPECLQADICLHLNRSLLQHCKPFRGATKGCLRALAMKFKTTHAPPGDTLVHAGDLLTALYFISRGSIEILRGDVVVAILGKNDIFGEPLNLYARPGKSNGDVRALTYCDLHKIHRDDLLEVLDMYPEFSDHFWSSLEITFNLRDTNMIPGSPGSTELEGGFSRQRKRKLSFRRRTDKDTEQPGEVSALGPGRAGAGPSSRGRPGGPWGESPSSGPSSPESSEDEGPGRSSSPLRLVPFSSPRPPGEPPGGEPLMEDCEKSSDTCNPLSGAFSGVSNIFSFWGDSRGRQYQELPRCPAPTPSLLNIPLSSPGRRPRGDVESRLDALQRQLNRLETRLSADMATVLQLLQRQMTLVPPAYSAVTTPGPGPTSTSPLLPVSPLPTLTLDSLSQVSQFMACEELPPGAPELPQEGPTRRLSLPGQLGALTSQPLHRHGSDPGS
Kind of data set: In vitro effect on hERG channels, whole-cell patch clamp in HEK cells. It is filed as cell-based. As to conditions: 37 °C, read-out: IhERG, 0.1 HZ, IC50. As to the method: Electrophysiological measurements of hERG current were made in vitro to assess the hERG block produced by certain compounds disclosed herein. hERG currents were measured in HEK cells expressing the cloned human hERG channel using the whole-cell variant of the patch clamp method. Experiments were performed at 37±1° C. An Axopatch 1-B amplifier (Axon Instruments, Foster City, Calif.) was used for whole-cell voltage clamping. Creation of voltage clamp pulses and data acquisition was controlled by a PC running pClamp software (version 9.2, Axon Instruments). After rupture of the cell membrane (entering whole-cell mode), current kinetics and amplitudes were allowed to stabilize for 3-5 minutes as the cell was dialyzed with internal solution and paced at 0.1 Hz. Cells were depolarized to +10 mV for 500 ms from a holding potential of −75 mV and peak hERG current was measured as the maximum outward deflection of the tail current elicited upon return to −40 mV (pacing rate=0.1 Hz). Four concentrations of each test compound were added to the cell in a cumulative manner starting with the lowest test concentration. Each cell served as its own control and data are presented as % reduction of current amplitude achieved in the presence of drug.
A nonlinear curve fitting routine was utilized to fit a three-parameter Hill equation to the results using MicroCal Origin, version 6.0 software. The equation was: […]
On the technique in general: The hERG channel carries a current that helps repolarise heart muscle cells.

Where a name gives a salt, the structure may show the parent alone. Read-outs that look alike come from different tables or passages of the source.

T1 sequence (P23975 whole entry): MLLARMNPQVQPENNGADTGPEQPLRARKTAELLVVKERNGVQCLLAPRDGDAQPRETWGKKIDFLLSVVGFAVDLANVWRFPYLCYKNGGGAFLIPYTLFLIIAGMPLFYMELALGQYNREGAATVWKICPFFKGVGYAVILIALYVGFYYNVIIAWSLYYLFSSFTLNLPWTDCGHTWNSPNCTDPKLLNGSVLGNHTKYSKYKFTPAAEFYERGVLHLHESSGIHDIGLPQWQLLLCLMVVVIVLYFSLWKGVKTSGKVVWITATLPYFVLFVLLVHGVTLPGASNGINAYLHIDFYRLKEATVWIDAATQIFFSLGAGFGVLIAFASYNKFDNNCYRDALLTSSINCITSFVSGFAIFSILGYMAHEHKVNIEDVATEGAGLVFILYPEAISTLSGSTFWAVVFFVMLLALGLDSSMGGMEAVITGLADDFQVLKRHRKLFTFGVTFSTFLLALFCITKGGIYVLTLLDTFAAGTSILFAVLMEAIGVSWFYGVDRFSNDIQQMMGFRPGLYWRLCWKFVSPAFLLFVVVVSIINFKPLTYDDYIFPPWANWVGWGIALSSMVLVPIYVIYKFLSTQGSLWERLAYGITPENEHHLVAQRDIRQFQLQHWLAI

Turning to `COCCOCCOCCOCCO[C@@H]1Cc2ccccc2/C(=C\CCN(C)C)c2ccccc21` [(R)-5-(3-dimethylamino-propylidene)-10-OmPEG4-10,11-dihydro-5H-dibenzo[a,d]cyclohept-E-ene trifluoroacetate salt], the Ki in data set [1] (Table 2) was found to be 28.1 µM. Besides, the IC50 in data set [2] (Table 2, pacing rate 3 Hz) was found to be 21.3 µM; in data set [3] (Table 2, pacing rate 0.1 Hz) it was 39.9 µM.

`CN(C)CC/C=C1/c2ccccc2C[C@H](O)c2ccccc21` [(S)-5-(3-Dimethylamino-propylidene)-10,11-dihydro-5H-dibenzo[a,d]cyclohept-Z-en-10-ol, reference compound]: the Ki in data set [1] (Table 3) came out at 0.97 µM. Also, the IC50 in data set [3] (Table 3, pacing rate 0.1 Hz) worked out at 7.2 µM.

On to `COCCOCCOCCOCCOCCOCCO[C@H]1Cc2ccccc2/C(=C\CCN(C)C)c2ccccc21` [(S)-5-(3-dimethylamino-propylidene)-10-OmPEG6-10,11-dihydro-5H-dibenzo[a,d]cyclohept-E-ene trifluoroacetate salt], for which the Ki in data set [1] (Table 2) was 14.2 µM. Also, the IC50 in data set [2] (Table 2, pacing rate 3 Hz) turned out to be 8.5 µM; in data set [3] (Table 2, pacing rate 0.1 Hz) it was 36 µM.

On to `COCCOCCOCCOCCOCCOCCOCCOCCO[C@@H]1Cc2ccccc2/C(=C\CCN(C)C)c2ccccc21` [(R)-5-(3-dimethylamino-propylidene)-10-OmPEG8-10,11-dihydro-5H-dibenzo[a,d]cyclohept-E-ene trifluoroacetate salt], for which the Ki in data set [1] (Table 2) was determined as 13.5 µM. Moreover, the IC50 in data set [2] (Table 2, pacing rate 3 Hz) came out at 21.2 µM; in data set [3] (Table 2, pacing rate 0.1 Hz), 55.9 µM.

Consider `CN(C)CC/C=C1/c2ccccc2C[C@@H](O)c2ccccc21` [(R)-5-(3-dimethylamino-propylidene)-10,11-dihydro-5H-dibenzo[a,d]cyclohept-Z-en-10-ol, reference compound], for which, in data set [1] (Table 3), the Ki was 6.28 µM. Also, in data set [3] (Table 3, pacing rate 0.1 Hz), the IC50 was found to be 4.1 µM.

Consider `COCCOCCOCCOCCOCCOCCOCCOCCO[C@@H]1Cc2ccccc2/C(=C/CCN(C)C)c2ccccc21` [(R)-5-(3-dimethylamino-propylidene)-10-OmPEG8-10,11-dihydro-5H-dibenzo[a,d]cyclohept-Z-ene trifluoroacetate salt], for which the Ki in data set [1] (Table 3) was 4.37 µM. Besides, the 50% inhibitory concentration (IC50) in data set [3] (Table 3, pacing rate 0.1 Hz) is more than 100 µM.

For “5-(3-Dimethylamino-propylidene)-10,11-dihydro-5H-dibenzo[a,d]cyclohept-E-en-2-OmPEG6 hydrochloride salt”, the Ki in data set [1] (Table 1) is 35.5 µM. The IC50 in data set [2] (Table 1, pacing rate 3 Hz) was determined as 16.3 µM; in data set [3] (Table 1, pacing rate 0.1 Hz) it was 61.5 µM.

Take `CN(C)CC/C=C1/c2ccccc2CCc2cc(O)ccc21` [(Z)-5-(3-(dimethylamino)propylidene)-10,11-dihydro-5H-dibenzo[a,d][7]annulen-2-ol, reference compound]: the Ki in data set [1] (Table 1) worked out at 0.5 µM. The IC50 in data set [2] (Table 1, pacing rate 3 Hz) amounted to 14.9 µM; in data set [3] (Table 1, pacing rate 0.1 Hz) it was 1.6 µM.

On to `COCCOCCOCCOCCOCCOCCOCCOCCO[C@H]1Cc2ccccc2/C(=C\CCN(C)C)c2ccccc21` [(S)-5-(3-dimethylamino-propylidene)-10-OmPEG8-10,11-dihydro-5H-dibenzo[a,d]cyclohept-E-ene trifluoroacetate salt], for which, in data set [1] (Table 2), the Ki is 14 µM. Moreover, the IC50 in data set [2] (Table 2, pacing rate 3 Hz) was 71.6 µM; in data set [3] (Table 2, pacing rate 0.1 Hz) it was more than 100 µM.

With `COCCOCCOCCOCCOCCOCCO[C@@H]1Cc2ccccc2/C(=C/CCN(C)C)c2ccccc21` [(R)-5-(3-dimethylamino-propylidene)-10-OmPEG6-10,11-dihydro-5H-dibenzo[a,d]cyclohept-Z-ene trifluoroacetate salt], the Ki in data set [1] (Table 3) came out at 31.3 µM. In addition, in data set [3] (Table 3, pacing rate 0.1 Hz), the IC50 stood at 18.9 µM.

Regarding `COCCOCCOCCOCCOCCOCCOCCOCCOc1ccc2c(c1)CCc1ccccc1/C2=C\CCN(C)C` [5-(3-Dimethylamino-propylidene)-10,11-dihydro-5H-dibenzo[a,d]cyclohept-E-en-2-OmPEG8 hydrochloride salt], the Ki in data set [1] (Table 1) is 62.9 µM. Besides, the IC50 in data set [2] (Table 1, pacing rate 3 Hz) was determined as 23.4 µM; in data set [3] (Table 1, pacing rate 0.1 Hz), 2.2 µM.

In the case of `CN(C)CCC=C1c2ccccc2CCc2ccccc21` [Amitriptyline, reference compound], the IC50 amounted to 7.1 µM in data set [2] (Table 1, pacing rate 3 Hz) and 7.1 µM in data set [2] (Table 2, pacing rate 3 Hz).

Consider `COCCOCCOCCOCCO[C@H]1Cc2ccccc2/C(=C/CCN(C)C)c2ccccc21` [(S)-5-(3-dimethylamino-propylidene)-10-OmPEG4-10,11-dihydro-5H-dibenzo[a,d]cyclohept-Z-ene trifluoroacetate salt], for which, in data set [1] (Table 3), the Ki is 27.4 µM. In data set [3] (Table 3, pacing rate 0.1 Hz), the IC50 worked out at 11.5 µM.

Turning to `CN(C)CC/C=C1\c2ccccc2C[C@@H](O)c2ccccc21` [(R)-5-(3-dimethylamino-propylidene)-10,11-dihydro-5H-dibenzo[a,d]cyclohept-E-en-10-ol, reference compound], the Ki in data set [1] (Table 2) came out at 2.53 µM. The IC50 in data set [2] (Table 2, pacing rate 3 Hz) came out at 6.2 µM; in data set [3] (Table 2, pacing rate 0.1 Hz), 18 µM.

Turning to `COCCO[C@@H]1Cc2ccccc2/C(=C\CCN(C)C)c2ccccc21` [(R)-5-(3-dimethylamino-propylidene)-10-OmPEG1-10,11-dihydro-5H-dibenzo[a,d]cyclohept-E-ene trifluoroacetate salt], the Ki in data set [1] (Table 2) was determined as 4.45 µM. For the same molecule, the IC50 in data set [3] (Table 2, pacing rate 0.1 Hz) is 12.1 µM.

For “5-(3-Dimethylamino-propylidene)-10,11-dihydro-5H-dibenzo[a,d]cyclohept-Z-en-2-OmPEG6 hydrochloride salt”, the Ki in data set [1] (Table 1) was found to be 37.7 µM. Moreover, the IC50 was determined as 12.4 µM in data set [2] (Table 1, pacing rate 3 Hz) and 8.1 µM in data set [3] (Table 1, pacing rate 0.1 Hz).

In the case of `COCCOCCOCCOCCO[C@@H]1Cc2ccccc2/C(=C/CCN(C)C)c2ccccc21` [(R)-5-(3-dimethylamino-propylidene)-10-OmPEG4-10,11-dihydro-5H-dibenzo[a,d]cyclohept-Z-ene trifluoroacetate salt], in data set [1] (Table 3), the Ki was 30.6 µM. The IC50 in data set [3] (Table 3, pacing rate 0.1 Hz) was determined as 21.5 µM.

Consider `COCCOCCO[C@@H]1Cc2ccccc2/C(=C\CCN(C)C)c2ccccc21` [(R)-5-(3-dimethylamino-propylidene)-10-OmPEG2-10,11-dihydro-5H-dibenzo[a,d]cyclohept-E-ene trifluoroacetate salt], for which the Ki in data set [1] (Table 2) is 49.1 µM. Moreover, the IC50 in data set [3] (Table 2, pacing rate 0.1 Hz) came out at 14 µM.

In the case of `COCCOCCOCCOCCOCCOCCOCCOCCO[C@H]1Cc2ccccc2/C(=C/CCN(C)C)c2ccccc21` [(S)-5-(3-dimethylamino-propylidene)-10-OmPEG8-10,11-dihydro-5H-dibenzo[a,d]cyclohept-Z-ene trifluoroacetate salt], the Ki in data set [1] (Table 3) stood at 2.99 µM. Also, the IC50 in data set [3] (Table 3, pacing rate 0.1 Hz) stood at 32.8 µM.

For the molecule `CN(C)CC/C=C1\c2ccccc2CCc2cc(O)ccc21` [(E)-5-(3-(dimethylamino)propylidene)-10,11-dihydro-5H-dibenzo[a,d][7]annulen-2-ol, reference compound], in data set [1] (Table 1), the Ki was found to be 0.16 µM.

For `COCCOCCOCCOCCOCCOCCO[C@H]1Cc2ccccc2/C(=C/CCN(C)C)c2ccccc21` [(S)-5-(3-dimethylamino-propylidene)-10-OmPEG6-10,11-dihydro-5H-dibenzo[a,d]cyclohept-Z-ene trifluoroacetate salt], in data set [1] (Table 3), the Ki is 22.1 µM. Also, the half-inhibitory concentration (IC50) in data set [3] (Table 3, pacing rate 0.1 Hz) turned out to be 38.3 µM.
